Results on one molecule are retold here after US7211588B2, “N-substituted indolyl-3-glyoxylamides, their use as medicaments and process for their preparation” (Zentaris GmbH, priority 2003, dated 2007).

The test system of series [1] is pulmonary carcinoma cell line NCl-H460 (NCl 503473). Kind of series: XTT proliferation/cytotoxicity test, NCI-H460. Type of series: cell-based. The conditions noted are these: Homo sapiens, NCI-H460 cells. An excerpt: (§1) Substance 1 was investigated for its antiproliferative action in a proliferation test using established tumor cell (D. A. Scuderio et al. Cancer Res. 1988, 48, 4827–4833). The test used determines the cellular dehydrogenase activity and permits a determination of the cell vitality and, indirectly, of the cell count. The cell lines used are the human cervical carcinoma cell line KB/HeLa (ATCC CCL17), the ovarial adeno carcinoma cell line SKOV-3 (ATCC HTB77), the human glioblastoma cell line SF-268 (NCl 503138) and the pulmonary carcinoma cell line NCl-H460 (NCl 503473).

Series [2] deals with resistant line L1210/mdr (L1210VCR). Briefly: XTT proliferation test, L1210VCR. Type of series: cell-based, murine. The conditions noted are these: Mus musculus, resistant L1210VCR cells.
Excerpt: as §1, with “503473). Substance 1 was further characterized by testing with regard to multidrug-resistant cell lines as compared with the nonresistant wild-type cell lines. The cell lines tested are the murine cell line L1210, the acute myeloid leukemia cell line LT12 and the resistant lines L1210/mdr and LT12/mdr. Further test systems used are the murine P388 cell line (methylcholanthrene-induced lymphoid neoplasm) and the doxorubicin-resistant P388 cell line.” for “503473).”
For orientation: Formazan colour is commonly taken as a measure of viable cells.

The subject of series [3] is murine P388 cell line (methylcholanthrene-induced lymphoid neoplasm). Briefly: XTT proliferation test, P388. Type of series: cell-based. The note with it: Mus musculus, P388 wild-type cells.
Excerpt: as §1, with “503473). Substance 1 was further characterized by testing with regard to multidrug-resistant cell lines as compared with the nonresistant wild-type cell lines. The cell lines tested are the murine cell line L1210, the acute myeloid leukemia cell line LT12 and the resistant lines L1210/mdr and LT12/mdr. Further test systems used are the murine P388 cell line (methylcholanthrene-induced lymphoid neoplasm) and the doxorubicin-resistant P388 cell line.” for “503473).”

Series [4] relates to ovarial adeno carcinoma cell line SKOV-3 (ATCC HTB77). Kind of series: XTT proliferation/cytotoxicity test, SK-OV-3. The note with it: Homo sapiens, SK-OV-3 cells. Format: cell-based.
Excerpt: as §1

Series [5] relates to acute myeloid leukemia cell line LT12. Kind of series: XTT proliferation test, LT12. Format: cell-based. The note with it: Rattus norvegicus, LT12 wild-type cells.
Excerpt: as §1, with “503473). Substance 1 was further characterized by testing with regard to multidrug-resistant cell lines as compared with the nonresistant wild-type cell lines. The cell lines tested are the murine cell line L1210, the acute myeloid leukemia cell line LT12 and the resistant lines L1210/mdr and LT12/mdr. Further test systems used are the murine P388 cell line (methylcholanthrene-induced lymphoid neoplasm) and the doxorubicin-resistant P388 cell line.” for “503473).”

The test system of series [6] is doxorubicin-resistant P388 cell line. Kind of series: XTT proliferation test, P388ADR. Format: cell-based, murine. The conditions noted are these: Mus musculus, doxorubicin-resistant P388ADR cells.
Excerpt: as §1, with “503473). Substance 1 was further characterized by testing with regard to multidrug-resistant cell lines as compared with the nonresistant wild-type cell lines. The cell lines tested are the murine cell line L1210, the acute myeloid leukemia cell line LT12 and the resistant lines L1210/mdr and LT12/mdr. Further test systems used are the murine P388 cell line (methylcholanthrene-induced lymphoid neoplasm) and the doxorubicin-resistant P388 cell line.” for “503473).”

The test system of series [7] is resistant line LT12/mdr. Kind of series: XTT proliferation test, LT12mdr. Format: cell-based. The note with it: Rattus norvegicus, multidrug-resistant LT12mdr cells.
Excerpt: as §1, with “503473). Substance 1 was further characterized by testing with regard to multidrug-resistant cell lines as compared with the nonresistant wild-type cell lines. The cell lines tested are the murine cell line L1210, the acute myeloid leukemia cell line LT12 and the resistant lines L1210/mdr and LT12/mdr. Further test systems used are the murine P388 cell line (methylcholanthrene-induced lymphoid neoplasm) and the doxorubicin-resistant P388 cell line.” for “503473).”

In series [8] the test system is human cervical carcinoma cell line KB/HeLa (ATCC CCL17). Kind of series: XTT proliferation/cytotoxicity test, KB/HeLa. Type of series: cell-based. The note with it: KB/HeLa cells.
Excerpt: as §1

The subject of series [9] is human glioblastoma cell line SF-268 (NCl 503138). Kind of series: XTT proliferation/cytotoxicity test, SF-268. Format: cell-based. The conditions noted are these: SF-268 cells.
Excerpt: as §1

Series [10] concerns murine cell line L1210. Briefly: XTT proliferation test, L1210. Format: cell-based. The conditions noted are these: Mus musculus, L1210 wild-type cells.
Excerpt: as §1, with “503473). Substance 1 was further characterized by testing with regard to multidrug-resistant cell lines as compared with the nonresistant wild-type cell lines. The cell lines tested are the murine cell line L1210, the acute myeloid leukemia cell line LT12 and the resistant lines L1210/mdr and LT12/mdr. Further test systems used are the murine P388 cell line (methylcholanthrene-induced lymphoid neoplasm) and the doxorubicin-resistant P388 cell line.” for “503473).”

≈ marks a conversion by molar mass, not a printed value.

Consider `O=C(C(=O)N(C(=O)c1ccccc1)c1ccc2ncccc2c1)c1cn(Cc2ccc(Cl)cc2)c2ccccc12` [Compound 1, N-{2-[1-(4-Chlorobenzyl)-1H-indol-3-yl]-2-oxoacetyl}-N-quinolin-6-ylbenzamide], for which the melting point is 213 °C. The same molecule came in with an IC50 in [1] of 0.222 µg/mL (≈ 0.408 µM). For the same molecule, the half-maximal inhibitory concentration (IC50) in series [2] is 0.577 µg/mL (≈ 1.06 µM). Moreover, the IC50 in series [3] was found to be 0.219 µg/mL (≈ 0.403 µM). In addition, the IC50 in [4] turned out to be 0.139 µg/mL (≈ 0.256 µM). The IC50 in [5] was 0.226 µg/mL (≈ 0.415 µM). In series [6], the IC50 was 0.252 µg/mL (≈ 0.463 µM). In series [7], the IC50 came out at 0.277 µg/mL (≈ 0.509 µM). The IC50 in series [8] turned out to be 0.17 µg/mL (≈ 0.312 µM). In series [9], this molecule gave an IC50 of 0.261 µg/mL (≈ 0.48 µM). In series [10], this molecule displayed a half-maximal inhibitory concentration (IC50) of 0.255 µg/mL (≈ 0.469 µM).

As usually defined, the IC50 is the concentration needed to halve the response being measured. What is called melting point is the temperature, or range, at which the solid turns liquid.
